Read-outs that look alike come from different tables or passages of the source. Marks after values point to notes of the source that are not given here.
Test: logP by HPLC (EEC Directive 79/831 Annex V.A8)
Assay type: physicochemical
[1] = [b] LC-MS, acidic range, pH 2.7, 0.1% aqueous formic acid and acetonitrile
[2] = [c] LC-MS, neutral range, pH 7.8, 0.001 molar aqueous ammonium bicarbonate and acetonitrile
[3] = pH 2.7, given in the preparation examples, read-out: log P (pH 2.7)

| Structure (SMILES) | logP [1] | logP [2] | other results |
| --- | --- | --- | --- |
| O=C(OC1CCCCC1)c1csc(C2CCN(C(=O)CCCC(F)(F)C(F)(F)F)CC2)n1 [Example 57] | 4.22^[b] | – | – |
| COc1ccc(C)cc1NC(=O)N1CCC(c2nc(C(=O)OC3CCCCC3)cs2)CC1 [Example 71] | 4.18^[b] | – | – |
| Cc1ccc(Cl)cc1NC(=O)N1CCC(c2nc(C(=O)OC3CCCc4ccccc43)cs2)CC1 (centres unmarked) [Example 125] | 4.27 | 4.14 | – |
| CCCCC(=O)N1CCC(c2nc(C(=O)Oc3cccc4ccccc34)cs2)CC1 [Example 3] | 3.66^[b] | – | – |
| COc1ccc(C)cc1NC(=O)N1CCC(F)(c2nc(C(=O)OCc3c(F)cccc3F)cs2)CC1 [Example 173] | 3.80 | 3.92 | – |
| O=C(OCc1ccccc1Br)c1csc(C2CCN(C(=S)Nc3cc(F)ccc3F)CC2)n1 [Example 116] | 3.83 | 3.87 | – |
| Cc1ccc(C)c(NC(=O)N2CCC(c3nc(C(=O)OC4CCCCC4c4ccc(F)c(F)c4)cs3)CC2)c1 (centres unmarked) [Example 160] | 4.52^[b] | – | – |
| Cc1ccc(C)c(NC(=O)N2CCC(c3nc(C(=O)OCCc4c(Cl)cccc4Cl)cs3)CC2)c1 [Example 157] | 4.29^[b] | – | – |
| Cc1ccc(Cl)c(NC(=O)N2CCC(c3nc(C(=O)OC4CCCCC4)cs3)CC2)c1 [Example 62] | 4.30^[b] | – | – |
| Cc1ccc(C)c(NC(=O)N2CCC(c3nc(C(=O)Oc4c(F)cccc4F)cs3)CC2)c1 [Example 150] | 3.39^[b] | – | – |
| Cc1ccc(Cl)cc1NC(=O)N1CCC(F)(c2nc(C(=O)OCc3c(F)cccc3F)cs2)CC1 [Example 166] | 3.87 | 3.86 | – |
| Cn1ncc(CC(=O)N2CCC(c3nc(C(=O)OC4CCCCC4)cs3)CC2)c1Cl [Example 6] | 2.93^[b] | – | – |
| Cc1ccc(C)c(NC(=O)N2CCC(c3nc(C(=O)Oc4ccccc4Br)cs3)CC2)c1 [Example 146] | 3.58^[b] | – | – |
| Cc1ccc(F)cc1NC(=O)N1CCC(c2nc(C(=O)OC3CCCc4ccccc43)cs2)CC1 (centres unmarked) [Example 79] | 4.00^[b] | – | – |
| Cc1ccc(F)cc1NC(=O)N1CCC(c2nc(C(=O)OC3CCCCC3)cs2)CC1 [Example 74] | 3.74^[b] | – | – |
| O=C(OC1CCCCC1)c1csc(C2CCN(C(=O)Cc3nc(C(F)(F)F)ccc3Cl)CC2)n1 [Example 52] | 4.08^[b] | – | – |
| O=C(OC1CCCCC1)c1cnc(C2CCN(C(=O)Cn3nc(C(F)F)cc3C(F)F)CC2)s1 [Example 178] | 3.97^[b] | – | – |
| Cc1ccc(C)c(NC(=S)N2CCC(c3nc(C(=O)OCc4ccccc4Br)cs3)CC2)c1 [Example 88] | 3.68 | 3.71 | – |
| O=C(OCc1ccccc1Br)c1csc(C2CCN(C(=O)Nc3cc(F)ccc3F)CC2)n1 [Example 84] | 3.79^[c]; 3.79^[b] | 3.79^[c]; 3.79^[b] | – |
| Cc1ccc(C)c(NC(=O)N2CCC(c3nc(C(=O)Oc4ccccc4I)cs3)CC2)c1 [Example 154] | 3.69^[b] | – | – |
| Cc1ccc(C)c(NC(=S)N2CCC(c3nc(C(=O)OC4CCCCC4c4ccccc4)cs3)CC2)c1 (centres unmarked) [Example 158] | 4.73^[b] | – | – |
| CC(C)(C)OC(=O)N1CCC(c2nc(C(=O)OC3CCCCC3)cs2)CC1 [XXXIII-1, tert-Butyl 4-{4-[(cyclohexyloxy)carbonyl]-1,3-thiazol-2-yl}piperidine-1-carboxylate] | – | – | chromatographic logP [3]: 4.62 |

| Structure (SMILES) | logP [1] | logP [2] | other results |
| --- | --- | --- | --- |
| Cc1ccc(C)c(NC(=O)N2CCC(c3nc(C(=O)Oc4c(C)cccc4Br)cs3)CC2)c1 [Example 141] | 3.82^[b] | – | – |
| COc1ccc(C)cc1NC(=O)N1CCC(c2nc(C(=O)OCc3ccccc3Br)cs2)CC1 [Example 104] | 4.08 | 4.12 | – |
| COc1ccc(COC(=O)c2csc(N3CCN(C(=O)Cn4nc(C(F)(F)F)cc4C)CC3)n2)cc1 [Example 35] | – | 3.19^[c] | – |
| Cc1ccc(Cl)cc1NC(=O)N1CCC(F)(c2nc(C(=O)OC3CCCCC3)cs2)CC1 [Example 167] | 4.33 | 4.32 | – |
| Cc1cc(C(F)(F)F)nn1CC(=O)N1CCN(c2nc(C(=O)Sc3ccc4ccccc4c3)cs2)CC1 [Example 45] | 4.33^[c]; 4.33^[b] | 4.33^[c]; 4.33^[b] | – |
| Cc1cc(C(F)(F)F)nn1CC(=O)N1CCC(F)(c2nc(C(=O)O[C@@H]3CCCc4ccccc43)cs2)CC1 [Example 127] | 4.25^[b] | – | – |
| Cc1ccc(I)cc1CC(=O)N1CCC(c2nc(C(=O)OC3CCCCC3)cs2)CC1 [Example 19] | 4.66^[b] | – | – |
| Cc1sc(-c2ccccc2)nc1CC(=O)N1CCC(c2nc(C(=O)Oc3cccc4ccccc34)cs2)CC1 [Example 23] | 4.43^[b] | – | – |
| O=C(OC1CCCCC1)c1csc(C2(F)CCN(C(=O)Cn3nc(C(F)F)cc3C(F)F)CC2)n1 [Example 69] | 3.91^[b] | – | – |
| Cc1cc(C(F)(F)F)nn1CC(=O)N1CCN(c2nc(C(=O)OC3CCc4ccccc4C3)cs2)CC1 (centres unmarked) [Example 42] | 3.87 | 3.82 | – |
| Cc1cc(CC(=O)N2CCC(c3nc(C(=O)Oc4cccc5ccccc45)cs3)CC2)c(C)s1 [Example 25] | 4.12^[b] | – | – |
| COc1ccc(OC)c(NC(=O)N2CCC(c3nc(C(=O)OCc4ccccc4Br)cs3)CC2)c1 [Example 103] | 3.83 | 3.81 | – |
| Cc1cc(C(F)(F)F)nn1CC(=O)N1CCN(c2nc(C(=O)SCc3ccc(Cl)cc3Cl)cs2)CC1 [Example 50] | 4.79 | 4.87 | – |
| CCCCCCC(=O)N1CCC(c2nc(C(=O)OC3CCCCC3)cs2)CC1 [Example 58] | 4.51^[b] | – | – |
| O=C(OCc1ccccc1Br)c1csc(C2CCN(C(=O)Nc3cc(Cl)ccc3Cl)CC2)n1 [Example 108] | 4.56 | 4.61 | – |
| Cc1ccc(C)c(CC(=O)N2CCC(c3nc(C(=O)OCc4ccccc4Br)cs3)CC2)c1 [Example 102] | 4.23 | 4.27 | – |
| Cc1ccc(C)c(NC(=O)N2CCC(c3nc(C(=O)Oc4c(F)cccc4Br)cs3)CC2)c1 [Example 152] | 3.86^[b] | – | – |
| Cc1noc(C)c1NC(=S)N1CCC(c2nc(C(=O)OCc3ccccc3Br)cs2)CC1 [Example 119] | 3.2 | 3.21 | – |
| Cc1cc(C(F)(F)F)nn1CC(=O)N1CCN(c2nc(C(=O)Sc3ccc(Cl)cc3Cl)cs2)CC1 [Example 47] | 4.49 | 4.5 | – |
| Cc1ccc(C)c(NC(=O)N2CCC(F)(c3nc(C(=O)O[C@@H]4CCCc5ccccc54)cs3)CC2)c1 [Example 126] | 4.30^[b] | – | – |
| COc1ccc(C)cc1NC(=O)N1CCC(F)(c2nc(C(=O)OC3CCCCC3)cs2)CC1 [Example 169] | 4.4 | 4.42 | – |
| Cc1ccc(C)c(CC(=O)N2CCC(c3nc(C(=O)OC4CCCc5ccccc54)cs3)CC2)c1 (centres unmarked) [Example 96] | 4.54^[b] | – | – |

| Structure (SMILES) | logP [1] | logP [2] | other results |
| --- | --- | --- | --- |
| COc1ccc(OC)c(NC(=O)N2CCC(c3nc(C(=O)OC4CCCCC4)cs3)CC2)c1 [Example 93] | 3.76^[b] | – | – |
| Cc1ccc([N+](=O)[O-])cc1NC(=O)N1CCC(c2nc(C(=O)OCc3ccccc3Br)cs2)CC1 [Example 110] | 3.69 | 3.70 | – |
| Cc1noc(C)c1NC(=O)N1CCC(c2nc(C(=O)OC3CCCCC3)cs2)CC1 [Example 76] | 2.66^[b] | – | – |
| COc1ccc(OC)c(NC(=O)N2CCC(c3nc(C(=O)OC4CCCc5ccccc54)cs3)CC2)c1 (centres unmarked) [Example 77] | 4.05^[b] | – | – |
| Cc1nc(C)n(CC(=O)N2CCC(c3nc(C(=O)OC4CCCCC4)cs3)CC2)n1 [Example 29] | 2.08^[b] | – | – |
| COc1ccc(C)cc1NC(=O)N1CCC(c2nc(C(=O)OC3CCCc4ccccc43)cs2)CC1 (centres unmarked) [Example 82] | 4.33^[b] | – | – |
| Cc1nc(CC(=O)N2CCC(c3nc(C(=O)OC4CCCCC4)cs3)CC2)c(C)s1 [Example 27] | 3.02^[b] | – | – |
| O=C(OC1CCCCC1)c1csc(C2CCN(C(=O)Cc3cccc(C(F)(F)F)c3)CC2)n1 [Example 2] | 4.21^[b] | – | – |
| O=C(Oc1c(F)cccc1Cl)c1cnc(C2CCN(C(=O)Cn3nc(C(F)F)cc3C(F)F)CC2)s1 [Example 176] | 3.67^[b] | – | – |
| Cc1ccc(C)c(NC(=O)N2CCC(c3nc(C(=O)Oc4c(Cl)cccc4Cl)cs3)CC2)c1 [Example 151] | 3.82^[b] | – | – |
| Cc1ccc(F)c(NC(=O)N2CCC(c3nc(C(=O)OCc4ccccc4Br)cs3)CC2)c1 [Example 92] | 3.85 | 3.83 | – |
| O=C(OCc1ccccc1Br)c1csc(C2CCN(C(=O)Cc3cc(Br)ccc3Br)CC2)n1 [Example 101] | 4.68 | 4.64 | – |
| Cc1ccc(C)c(NC(=O)N2CCC(c3nc(C(=O)OCc4ccccc4Br)cs3)CC2)c1 [Example 91] | 3.86 | 3.84 | – |
| Cc1ccc(C)c(NC(=O)N2CCC(c3nc(C(=O)OCc4c(F)cccc4F)cs3)CC2)c1 [Example 121] | 3.38^[b] | – | – |
| O=C(OCc1ccccc1Br)c1csc(C2CCN(C(=S)Nc3cc(C(F)(F)F)ccc3F)CC2)n1 [Example 118] | 4.34 | 4.37 | – |
| Cc1cc(C(F)(F)F)nn1CC(=O)N1CCN(c2nc(C(=O)OC3CCCCC3)cs2)CC1 [Example 46, Cyclohexyl 2-(4-{[5-methyl-3-(trifluoromethyl)-1H-pyrazol-1-yl]acetyl}piperazin-1-yl)-1,3-thiazole-4-carboxylate] | – | – | chromatographic logP ([c] LC-MS, neutral range, pH 7.8, 0.001 molar aqueous ammonium bicarbonate and acetonitrile, read-out: logP): 3.68; chromatographic logP [3]: 3.69 |
| O=C(OC1CCCCC1)c1csc(C2CCN(C(=O)Cc3cc(Cl)ccc3C(F)(F)F)CC2)n1 [Example 18] | 4.68^[b] | – | – |
| O=C(OC1CCCc2ccccc21)c1csc(C2CCN(C(=S)Nc3cc(F)ccc3F)CC2)n1 (centres unmarked) [Example 124] | 4.06 | 3.94 | – |
| O=C(OCc1c(F)cccc1F)c1csc(C2(F)CCN(C(=O)Cn3nc(C(F)F)cc3C(F)F)CC2)n1 [Example 168] | 3.53 | 3.56 | – |
| Cc1ccc(F)c(NC(=O)N2CCC(c3nc(C(=O)OC4CCCc5ccccc54)cs3)CC2)c1 (centres unmarked) [Example 80] | 4.08^[b] | – | – |
| Cc1ccc(Cl)c(NC(=O)N2CCC(c3nc(C(=O)OCc4ccccc4Br)cs3)CC2)c1 [Example 107] | 4.28 | 4.33 | – |
| O=C(OC1CCCCC1)c1csc(C2CCN(C(=O)Cc3cc(C(F)(F)F)ccc3Br)CC2)n1 [Example 13] | 4.75^[b] | – | – |
